Laboratory results as given in patent publication US20090269330A1, “FATTY ACID TRIGLYCERIDES FOR MAKING BIOCOMPATIBLE COATINGS” (ZISCOAT NV, priority 2006, published 2009).

Experiment: In vitro drug release from enzymatically transesterified triglyceride coating on stainless steel samples
Type: physicochemical
Conditions: 5 weight % paclitaxel in enzymatically transesterified triglyceride coating; PBS with 0.02% (w/v) sodium azide, 37° C.; after 5 weeks; HPLC
Description: Transesterified triglyceride mixtures were made using the following procedure: • 30 weight % tristearin, 30 weight % triolein, 40 weight % trilinolein are put in a vacuum furnace at 70° C. during 1 hour • the mixture is stirred during 30 minutes at 75° C. • 1% of 1,3 specific lipase (lipozyme) is added to the mixture at 75° C. during 1 hour. • Filtration over Whatman no. 4 filter. The slip melting point of the resulting mixture was 60° C.
5 weight % of paclitaxel (taxol) and acetone were added to this triglyceride mixture, heated to 50° C. and stirred until homogeneous. Stainless steel samples were dipped into the solution followed by air-drying. The samples were put into 5 ml of release medium (PBS with 0.02% (w/v) sodium azide) at 37° C. and continuously shaken with a rocking table. At different time points, samples were put in a new vial with fresh release medium. The medium of the previous vials were analyzed with HPLC to determine the concentration of paclitaxel that was released. After the test, the remaining paclitaxel was liberated from the coating on the stainless steel samples by dissolving the coating in acetone at 50° C.

- percentage of drug released from coating: 75%
Compound: CC(=O)O[C@H]1C(=O)[C@@]2(C)[C@H]([C@H](OC(=O)c3ccccc3)[C@]3(O)C[C@H](OC(=O)[C@H](O)[C@@H](NC(=O)c4ccccc4)c4ccccc4)C(C)=C1C3(C)C)[C@]1(OC(C)=O)CO[C@@H]1C[C@@H]2O [paclitaxel]
